# Reference: patent US9278086B2, “Combination therapy and uses thereof for treatment and prevention of parasitic infection and disease” (The Royal Institution for the Advancement of …, priority 2010, dated 2016)
# Marks after values point to notes of the source that are not given here.
# Legend:
# Plasmodium berghei ANKA = Plasmodium berghei ANKA infection (cerebral malaria model) in C57BL/6J mice, parasitemia and survival; assay type: in vivo
# Description: FIGS. 8A and 8B show the results of two independent experiments on the effect of cysteamine and artesunate combinations on the progression of Plasmodium berghei ANKA infection (parasitemia). Groups of 5 adult 18-20 g C57BL/6J males and females were infected intravenously with 1×10^6 erythrocytes parasitized with P. berghei ANKA at time “0”. Two hours later, mice were injected i.p with either Artemisinin alone or with Artemisinin/Cysteamine combinations (at the indicated concentrations in mg/kg body weight). In the case of the latter, Artemisinin was injected first in one quadrant, and cysteamine was injected second, 10-15 minutes later in another quadrant. The drug treatment was further repeated at days 1, 2 and 3 post-infection to emulate the standard 4-day test used in anti-malarial drug discovery. Starting at day 5, blood was collected, thin blood smears were prepared, and parasitemia was determined (400 erythrocytes counted, expressed as percentage parasitized erythrocytes). Error bars show standard deviations on the mean; and
# FIGS. 9A and 9B show the results of two independent experiments on the effect of cysteamine and artesunate combinations on the survival of Plasmodium berghei ANKA-infected mice. Infection and drug administration were performed as described above for FIGS. 8A and 8B. Animals were monitored for the appearance and severity of cerebral symptoms (CM phase, shown as rectangle in graph), and moribund animals were euthanized, and time of death was recorded.
# Intravenous infection with Plasmodium berghei ANKA is an accepted mouse model of cerebral malaria (CM) (Hunt, N. H. et al. 2006, Int. J. Parasitol. 36: 569-582). The infection causes the following pathology. First, there is appearance of blood parasitemia, starting at days 3 or 4, which can go up to 10% by day 7-8. Starting at day 5-6, there is emergence of cerebral symptoms caused by permeability of the blood brain barrier, concomitant to trapping of parasitized red cells in the microvasculature and acute pathological host inflammatory response in situ. This cerebral phase quickly progresses from tremors, to paralysis, to coma, and is uniformly lethal in mice by days 8-10. In this model, progress of infection and possibly drug effects may be monitored by a) appearance and intensity of blood parasitemia (between days 5-8), b) appearance of cerebral symptoms, and c) lethality.
# Plasmodium chabaudi [1] = test: 4-day test, P. chabaudi (10^7 pRBC i.v.) in pantetheinase-sufficient C57BL/6 mice, blood parasitemia days 4 and 5; assay type: in vivo; settings: for Inhibition of parasitemia Day 4 / Inhibition of parasitemia Day 5: days 0-3
# Description: (§1) A/J and C57BL/6 (B6) mice were purchased from the Jackson Laboratories (Bar Harbor, Me.) and were housed at McGill University according to the guidelines of the Canadian Council on Animal Care. An LDH virus-free isolate of P. chabaudi AS was maintained by weekly passage in A/J mice. Mice were infected intravenously into the tail vein (i.v.) with 10^6 or 10^7 pRBC suspended in pyrogen-free saline. Following infection, the percentage of pRBC was determined daily on thin blood smears stained with Dif-Quik™ (Dade Behring, Newark, Del.), as described (Fortin A, et al. (2001) Proc Natl Acad Sci USA 98: 10793-10798).
# (§2) Cysteamine hydrochloride (Sigma, Burlington ON) was prepared in PBS. Chloroquine hydrochloride, artesunate and dihydroartemisinin were provided by Dafra Pharmaceuticals; chloroquine was prepared in PBS, artesunate and DHA were prepared in 5% sodium bicarbonate and diluted in water to appropriate concentrations. All solutions were prepared fresh daily, filter sterilized and injections were performed intra-peritoneally (i.p) or subcutaneously (s.c.) for 4 days or according to treatment regimen. Mice were weighed prior to treatment to determine appropriate doses and injection volumes ranged from 100-400 μL per mouse. In the case of animals treated with two drugs, artemisinin derivatives were administered first (due to the short half life of cysteamine), followed by cysteamine 5-10 minutes later on alternate sides. Untreated control animals were injected with PBS alone.
# (§3) Groups with normally distributed data points were compared using parametric unpaired t-tests, while groups with non-Gaussian distributions were compared using non-parametric Mann-Whitney tests. Survival differences were analyzed using the Log-Rank test. […] Standard error of percent inhibition was calculated from individual mice compared to the mean parasitemia level of the control group.
# (§4) The effect of Cys on the potency and efficacy of the anti-malarial artemisinin derivatives was tested. […] Synergy (Tallarida R J (2001) J Pharmacol Exp Ther 298: 865-872) is defined as a total anti-malarial activity (reduction in blood parasitemia compared to untreated controls in a standard 4-day test) of the two compounds administered together being greater than the sum of the independent activities of the two compounds given alone. We tested combinations of Cys and either artesunate (ART) or dihydroartemisinin (DHA), the bioactive form of artemisinin. Pantetheinase-deficient mice were infected with P. chabaudi (10^7 pRBC, i.v.) and treated with Cys (170 mg/kg) and/or sub-optimal doses of ART (0.2 or 0.5 mg/kg) (FIG. 3A) or DHA (0.15 or 0.3 mg/kg) (FIG. 3B) from day 0-3 and parasitemia was monitored on days 4 and 5. […] Potentiation of the anti-malarial activity of ART (0.5 mg/kg) by Cys was also clearly evident in these C57BL/6 mice at both days 4 and 5 post-infection, with combined treatment causing a 65-71% reduction in parasitemia compared to PBS controls, greater than either compound tested alone (13-29%) (TABLE 1).
# Plasmodium chabaudi [2] = test: Progression, resolution and survival of lethal P. chabaudi infection (10^6 pRBC i.v.) in A/J mice; assay type: in vivo
# Description: as §1, §2
# It was investigated if low dose Cys could potentiate standard doses of ART that show therapeutic activity in vivo and concurrently determined possible long-term effects on patent parasitemia, resolution of infection and survival in a lethal infection model. In this protocol, mice were infected with 10^6 pRBC P. chabaudi (i.v.) and treated with Cys (60 mg/kg) and/or ART (0.5, 1, 2, 5 and 10 mg/kg) for 4 days (days 0-3), while blood parasitemia and survival were followed for 22 days. Control animals treated with either PBS or Cys alone (60 mg/kg) developed high parasite burdens, which peaked at day 6, and all mice succumbed to the infection by day 7 (FIGS. 5A and 5C). […] Likewise, although all mice treated with 0.5 mg/kg ART succumbed to the infection early (day 8), mice additionally receiving Cys survived until day 9; moreover, addition of Cys to 1.0 mg/kg ART completely rescued animals from lethality of infection, with 100% survival in this group (FIGS. 5B, 5C).
# Plasmodium chabaudi [3] = test: 4-day test, P. chabaudi (10^7 pRBC i.v.) in pantetheinase-deficient A/J mice, blood parasitemia days 4 and 5; assay type: in vivo; settings: for inhibition of parasitemia compared to PBS-treated controls: ART 0.2 mg/kg alone; for effect of addition of Cys on inhibition of parasitemia versus additive effect of the two compounds: Cys 170 mg/kg added to ART (0.2 or 0.5 mg/kg) or DHA (0.15 or 0.3 mg/kg); for Inhibition of parasitemia Day 4 / Inhibition of parasitemia Day 5: days 0-3; for symptoms of disease (ruffled fur, lethargy): mice receiving both Cys and ART/DHA, compared to PBS or only one compound
# Description: as §1, §2, §3, §4
# It was subsequently examined whether Cys potentiation of ART was dose dependent. Initially, Cys doses of 60, 100, 140 and 180 mg/kg were tested with a sub-optimal ART dose of 0.2 mg/kg. The drugs were administered from day 0-3 post infection, parasitemia was counted at day 4 and day 5 and the percent inhibition was calculated compared to PBS-treated controls (FIG. 4A). At 0.2 mg/kg, ART alone inhibits parasitemia by ˜20% (day 4) and 40% (day 5) while inhibition by Cys alone was partially dose dependent (varying between 10% and 25%). […] It was also assessed whether Cys could potentiate low doses of artesunate which, given alone, have no significant effect on parasitemia. In this experiment, Cys (170 mg/kg) was administered in combination, or not, with increasing doses of ART (0.05, 0.1, 0.2, 0.4 mg/kg) in the same 4-day experimental protocol.
# Plasmodium chabaudi [4] = test: Progression of P. chabaudi infection (10^6 pRBC i.v.) in pantetheinase-sufficient B6 mice; assay type: in vivo
# Description: as §1, §2
# To investigate whether the effects on parasite burden over the course of infection would also be observed with a pantetheinase-sufficient mouse strain, a similar experiment was performed using female B6 mice. Groups of mice were infected with 10^6 P. chabaudi pRBC i.v. and treated with PBS, 1 mg/kg or 30 mg/kg of Art, or 1 mg/kg or 30 mg/kg of Art plus 60 mg/kg of Cys for 4 days. […] As in A/J mice, the effect of Cys addition to 1 mg/kg of Art has a clear effect on early parasite replication at day 6 (FIG. 6B). […] B6 mice were able to completely clear parasite burdens and survive the infection, even in the control PBS-treated group.
# [5] = humans, oral dose 1475 mg Cys bitartrate (500 mg cysteamine base), cited from earlier work
# [6] = artesunate 0.5 mg/kg + cysteamine 170 mg/kg i.p.
# [7] = A/J mice, artesunate 0.2 mg/kg + cysteamine 170 mg/kg i.p.
# [8] = A/J mice, artesunate 0.2 mg/kg alone
# [9] = A/J mice, artesunate 0.5 mg/kg + cysteamine 170 mg/kg i.p.
# [10] = A/J mice, artesunate 0.5 mg/kg alone
# [11] = A/J mice, DHA 0.15 mg/kg + cysteamine 170 mg/kg i.p.
# [12] = A/J mice, DHA 0.3 mg/kg + cysteamine 170 mg/kg i.p.
compound,measurement,setting,value
C[C@@H]1CCC2[C@@H](C)C(=O)O[C@@H]3O[C@]4(C)CCC1C23OO4 (some centres unmarked) [Artemisinin],rise and absolute levels of parasitemia (days 6-8) versus Artemisinin alone,"Plasmodium berghei ANKA; Artemisinin 5 or 10 mg/kg + Cysteamine i.p., days 0-3",delay in the rise of parasitemia
same,prolongation of survival over Artemisinin alone,Plasmodium berghei ANKA; cysteamine added to Artemisinin,1 to 2 days
same,effect of adding cysteamine compared with doubling the dose of Artemisinin,"Plasmodium berghei ANKA; two independent experiments (FIG. 8A, 8B)",comparable (FIG. 8A) or superior (FIG. 8B)
"C[C@H]1[C@H](OC(=O)CCC(=O)O)O[C@@H]2O[C@@]3(C)CC[C@H]4[C@H](C)CC[C@@H]1[C@@]24OO3 [Artesunate, artesunate]",reduction in parasitemia compared to PBS controls,"Plasmodium chabaudi [1]; ART 0.5 mg/kg combined with Cys 170 mg/kg, days 4 and 5",65-71%
same,Inhibition of parasitemia Day 4,Plasmodium chabaudi [1]; [6],71* % PBS control
same,Inhibition of parasitemia Day 5,Plasmodium chabaudi [1]; [6],65* % PBS control
same,Inhibition of parasitemia Day 4,Plasmodium chabaudi [1]; artesunate 0.5 mg/kg alone,29 % PBS control
same,Inhibition of parasitemia Day 5,Plasmodium chabaudi [1]; artesunate 0.5 mg/kg alone,21 % PBS control
same,day until which mice survived,Plasmodium chabaudi [2]; ART 0.5 mg/kg + Cys 60 mg/kg,9 days
same,day at which all mice succumbed to the infection,Plasmodium chabaudi [2]; ART 0.5 mg/kg alone,8 days
same,survival,Plasmodium chabaudi [2]; ART 1.0 mg/kg + Cys 60 mg/kg,100%
same,effect on infection (onset and peak of parasitemia),"Plasmodium chabaudi [2]; ART alone 0.5-10 mg/kg, dose-dependent",delay in the onset of parasitemia and a reduction of peak parasitemia
same,further reduction in parasitemia at day 6,Plasmodium chabaudi [2]; Cys 60 mg/kg added to 0.5 mg/kg or 1 mg/kg ART,60-70%
same,peak levels of parasitemia relative to the corresponding dose of ART alone,Plasmodium chabaudi [2]; Cys 60 mg/kg added to all ART doses tested,reduction of peak levels of parasitemia
same,inhibition of parasitemia compared to PBS-treated controls,"Plasmodium chabaudi [3]; A/J mice, day 4 (FIG. 4A)",~20%
same,inhibition of parasitemia compared to PBS-treated controls,"Plasmodium chabaudi [3]; A/J mice, day 5 (FIG. 4A)",40%
same,inhibition of parasitemia replication,"Plasmodium chabaudi [3]; A/J mice, ART 0.1 and 0.2 mg/kg combined with Cys 170 mg/kg (FIG. 4C)",60-75%
same,inhibition of parasitemia replication,"Plasmodium chabaudi [3]; A/J mice, ART 0.1 and 0.2 mg/kg used alone (FIG. 4C)",< 10%
same,effect of addition of Cys on inhibition of parasitemia versus additive effect of the two compounds,Plasmodium chabaudi [3]; A/J mice,synergistic effect
same,potentiation of low-dose artesunate by Cys,"Plasmodium chabaudi [3]; A/J mice, Cys 170 mg/kg with ART 0.05, 0.1, 0.2, 0.4 mg/kg (FIG. 4C)",≥ 3 fold
same,Inhibition of parasitemia Day 4,Plasmodium chabaudi [3]; [7],65* % PBS control
same,Inhibition of parasitemia Day 5,Plasmodium chabaudi [3]; [7],56* % PBS control
same,Inhibition of parasitemia Day 4,Plasmodium chabaudi [3]; [8],30 % PBS control
same,Inhibition of parasitemia Day 5,Plasmodium chabaudi [3]; [8],20 % PBS control
same,Inhibition of parasitemia Day 4,Plasmodium chabaudi [3]; [9],93 % PBS control
same,Inhibition of parasitemia Day 5,Plasmodium chabaudi [3]; [9],80* % PBS control
same,Inhibition of parasitemia Day 4,Plasmodium chabaudi [3]; [10],65 % PBS control
same,Inhibition of parasitemia Day 5,Plasmodium chabaudi [3]; [10],43 % PBS control
same,"symptoms of disease (ruffled fur, lethargy)",Plasmodium chabaudi [3],fewer symptoms of disease
same,"outward symptoms of disease (lethargy, ruffled fur)",Plasmodium chabaudi [4]; 30 mg/kg Art plus Cys 60 mg/kg,did not display any outward symptoms of disease
same,parasite levels,Plasmodium chabaudi [4]; 30 mg/kg Art plus Cys 60 mg/kg,under 12 % pRBC
same,parasite levels and peak compared to Art administered alone,"Plasmodium chabaudi [4]; Art 1 or 30 mg/kg + Cys 60 mg/kg, 4 days",reduction in parasite levels and a delay in the peak
"NCCS [Cys bitartrate, cysteamine bitartrate]",Cmax,[5]; read-out: peak plasma concentration (Cmax),39 µM
"NCCS.O=C(O)C(O)C(O)C(=O)O (centres unmarked) [Cys bitartrate, cysteamine bitartrate]",AUCT0-Tlast,[5],3613 min
"C[C@@H]1CCC2[C@@H](C)[C@H](O)O[C@@H]3O[C@]4(C)CCC1C23OO4 (some centres unmarked) [DHA, dihydroartemisinin]",effect of addition of Cys on inhibition of parasitemia versus additive effect of the two compounds,Plasmodium chabaudi [3]; A/J mice,synergistic effect
same,Inhibition of parasitemia Day 4,Plasmodium chabaudi [3]; [11],56* % PBS control
same,Inhibition of parasitemia Day 5,Plasmodium chabaudi [3]; [11],46* % PBS control
same,Inhibition of parasitemia Day 4,"Plasmodium chabaudi [3]; A/J mice, DHA 0.15 mg/kg alone",22 % PBS control
same,Inhibition of parasitemia Day 5,"Plasmodium chabaudi [3]; A/J mice, DHA 0.15 mg/kg alone",13 % PBS control
same,Inhibition of parasitemia Day 4,Plasmodium chabaudi [3]; [12],80 % PBS control
same,Inhibition of parasitemia Day 5,Plasmodium chabaudi [3]; [12],71* % PBS control
same,Inhibition of parasitemia Day 4,"Plasmodium chabaudi [3]; A/J mice, DHA 0.3 mg/kg alone",50 % PBS control
same,Inhibition of parasitemia Day 5,"Plasmodium chabaudi [3]; A/J mice, DHA 0.3 mg/kg alone",40 % PBS control
same,"symptoms of disease (ruffled fur, lethargy)",Plasmodium chabaudi [3],fewer symptoms of disease
